# Assay results from article PMC7016953 (Cells, 2020).
# Tests used:
# TRPC6 = tested on: T1, TRPC6; test: Microfluorometric single-cell [Ca2+]i analysis, fura-2-loaded HEK cells stably expressing TRPC6; type: cell-based, human; details: 50 µM, standard bath 1 mM Ca2+
# T1 construct: expressed in transfected cells
# Method: The microfluorometric single-cell [Ca^2+]i analysis was performed on an inverted epifluorescence microscope (Carl Zeiss, Jena, Germany) and calibrated as described. Cells were grown on 25 mm coverslips and loaded with 4 µM fura-2/AM (AAT Bioquest, Sunnyvale, CA, U.S.A.) in HBS containing 0.2% BSA for 30 min at 37 °C. […] Experiments were performed either in standard bath solution, containing 1 mM Ca^2+ (black lines and bars), or in a nominally Ca^2+-free HBS buffer, supplemented with 200 µM EGTA (grey lines and bars). Time courses of averaged responses (left), and statistical analysis of 6–11 independent imaging experiments with means and S.D. (right) are shown. Significant differences (p < 0.05, Student´s t-test with paired data: #, with unpaired data: *) are marked for the indicated comparisons; n.s.: difference is statistically not significant.
# [1] = tested on: PC12 cells (native TRPC3 channel complexes); test: [Ca2+]i analysis in fura-2-loaded PC12 cells; type: cell-based, rat
# Method: Human embryonic kidney 293 (HEK293) cells were stably transfected with expression plasmids that encode hTRPC3-YFP, hTRPC6-YFP, hTRPC7-YFP, mTRPC4ß-YFP, rTRPV1-CFP, rTRPV2-YFP, rTRPV3-YFP, mTRPV4-YFP, or hTRPM2 as previously described. Cell lines were cultured in Earle’s minimum essential medium (MEM; Sigma, Munich, Germany), supplemented with 10% fetal calf serum (Gibco Thermo Fisher Scientific, Darmstadt, Germany), 2 mM L-glutamine, and required concentrations of geneticin in a range of 0.4–1 mg/mL. A HEK293mTRPC5-YFP cell line was maintained and induced as described before. The HEK293mTRPM3α2 cells (expressing the Ca^2+-permeable main variant of mouse TRPM3) were kindly provided by Johannes Oberwinkler (Marburg, Germany), the HEK293hTRPA1 cells that constitutively overexpress the human TRPA1 were from Dr. Natalie Tigue and Dr. Steve Moore (GlaxoSmithKline, Harlow, UK). With the exception of mTRPC5-YFP, all cell lines constitutively overexpress the respective TRP channel under the control of a cytomegalovirus (CMV) promoter. A HEK cell line stably expressing the human protein kinase C (PKC) ε C-terminally tagged with YFP [13] was generated and maintained in the same medium as HEKTRPC3-YFP cells. PC12 cells were cultured in RPMI-1640 (Sigma, Munich, Germany) with 10% fetal calf serum, 2 mM L-glutamine, 100 U/mL penicillin, and 0.1 mg/mL streptomycin. For electrophysiological and single cell [Ca^2+]i imaging experiments, PC12 cells were plated onto 25 mm poly-L-lysine-coated glass coverslips and measured 24–48 h after seeding. All cells were maintained at 37 °C in a 5% CO2-aerated, humidified atmosphere.
# The microfluorometric single-cell [Ca^2+]i analysis was performed on an inverted epifluorescence microscope (Carl Zeiss, Jena, Germany) and calibrated as described. Cells were grown on 25 mm coverslips and loaded with 4 µM fura-2/AM (AAT Bioquest, Sunnyvale, CA, U.S.A.) in HBS containing 0.2% BSA for 30 min at 37 °C. After gently rinsing the coverslips with HBS, coverslips were mounted in a bath chamber and superfused with HBS containing 0.035% BSA.
# Figure 7 Expression of TRPC3 and functional responses to TRPC activators in PC12 rat pheochromocytoma cells. (A) Immunofluorescence analysis of TRPC3 (green channel) and tyrosine hydroxylase (TH; red channel) expression in PC12 cells. Nuclei were counterstained with DAPI (blue channel). Bars: 20 µm scale. Time course of the [Ca^2+]i (B) and averaged basal and peak [Ca^2+]i values (C) were recorded by microfluorometric analysis in fura-2-loaded PC12 cells grown on glass coverslips. […] Data represent averages (B) or means and S.D. (C) of 6–12 imaging experiments for each compound. Significant increases compared to the respective basal values are indicated (#: p < 0.05; Student´s t-test for paired data).
# parental HEK293 cells = test: MTT cell viability assay; type: cell-based, human; details: 24 h
# Method: Cells were seeded in poly-L-lysine-coated 96-well plates at a density of 10,000 cells per well. After 24 h, the medium was exchanged, and compounds or the corresponding solvent were added and incubated for another 24 h. Then, the medium was removed, and a fresh medium containing 0.5 mg/mL MTT was added. After 3 h of incubation, supernatants were aspirated, and cells containing formazan crystals were lysed with 100% DMSO. Finally, absorbance of DMSO-dissolved formazan was measured at 560 and 670 nm with a plate reader (Polarstar Omega, BMG Labtech, Germany). The differences of both extinctions were calculated, and values were normalized to a solvent control (0.25% DMSO).
# mTRPM3α2 = test: Selectivity profiling, fluo-4 [Ca2+]i response, TRPM3; type: cell-based, mouse; details: 100 µM
# Method: Human embryonic kidney 293 (HEK293) cells were stably transfected with expression plasmids that encode hTRPC3-YFP, hTRPC6-YFP, hTRPC7-YFP, mTRPC4ß-YFP, rTRPV1-CFP, rTRPV2-YFP, rTRPV3-YFP, mTRPV4-YFP, or hTRPM2 as previously described. Cell lines were cultured in Earle’s minimum essential medium (MEM; Sigma, Munich, Germany), supplemented with 10% fetal calf serum (Gibco Thermo Fisher Scientific, Darmstadt, Germany), 2 mM L-glutamine, and required concentrations of geneticin in a range of 0.4–1 mg/mL. A HEK293mTRPC5-YFP cell line was maintained and induced as described before. […] For electrophysiological and single cell [Ca^2+]i imaging experiments, PC12 cells were plated onto 25 mm poly-L-lysine-coated glass coverslips and measured 24–48 h after seeding. […]
# The primary compound screen and the generation of concentration response curves in HEK293 cells or in PC12 cells were performed by using a custom-made fluorescence plate imager built into a robotic liquid handling station equipped with a 96-tip multichannel head (Freedom Evo 150, Tecan, Männedorf, Switzerland) as described previously. […] Plates were mounted on the imager, and fluorescence signals were recorded with a cooled Zyla 5.5 camera (Andor, Belfast, UK) through a 515 nm long pass filter. […] When inhibitory potencies were evaluated, a second pipetting step with the respective reference agonist was performed. […]
smiles,measurement,setting,value
C[C@@H]1CC[C@H]2[C@@H](C)C(=O)O[C@@H]3O[C@@]4(C)CC[C@@H]1[C@]32OO4 [artemisinin],[Ca2+]i response in TRPC6-expressing cells,TRPC6,remained unaffected
same,[Ca2+]i in fura 2-loaded PC12 cells,"[1]; artemisinin 50 or 100 µM, 6–12 experiments for each compound",significant increases in [Ca^2+]i
same,response to artemisinin after neuronal growth factor treatment of PC12 cells,[1]; neuronal growth factor treatment,lower response
same,metabolic activity (MTT test),parental HEK293 cells; 100 µM,slight and statistically significant reduction of metabolic activity
same,metabolic activity (MTT test),parental HEK293 cells; concentrations up to 50 µM,did not reduce the metabolic activity
same,"[Ca2+]i response, TRPM3",mTRPM3α2,none of the cell lines responded
